According to ChEMBL document CHEMBL5257153, “Oxazolidinones as versatile scaffolds in medicinal chemistry” (RSC Med Chem, 2023):
In brackets after ≈: the same amount, converted by molar mass.

Assays:
[1] = tested on: Mycobacterium tuberculosis; experiment: Antimycobacterial activity against Mycobacterium tuberculosis H37Rv strain assessed as bacterial growth inhibition by Microplate amar blue assay; assay type: functional
Carbonic anhydrase 1 = Carbonic anhydrase 1 (Homo sapiens, UniProt P00915); experiment: Inhibition of human CA1
Sequence of Carbonic anhydrase 1 (P00915 whole entry): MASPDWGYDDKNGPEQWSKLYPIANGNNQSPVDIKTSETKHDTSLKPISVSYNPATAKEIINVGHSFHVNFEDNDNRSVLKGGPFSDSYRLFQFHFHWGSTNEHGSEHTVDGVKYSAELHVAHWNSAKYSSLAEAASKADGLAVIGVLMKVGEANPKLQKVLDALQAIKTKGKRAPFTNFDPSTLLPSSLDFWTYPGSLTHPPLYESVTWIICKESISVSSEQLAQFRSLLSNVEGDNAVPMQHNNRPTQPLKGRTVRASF

Carbonic anhydrase 2 = Carbonic anhydrase 2 (Homo sapiens, UniProt P00918); experiment: Inhibition of human CA2
Acetylcholinesterase = Acetylcholinesterase (Homo sapiens, UniProt P22303); experiment: Inhibition of human AchE
Sequence of Acetylcholinesterase (P22303 whole entry): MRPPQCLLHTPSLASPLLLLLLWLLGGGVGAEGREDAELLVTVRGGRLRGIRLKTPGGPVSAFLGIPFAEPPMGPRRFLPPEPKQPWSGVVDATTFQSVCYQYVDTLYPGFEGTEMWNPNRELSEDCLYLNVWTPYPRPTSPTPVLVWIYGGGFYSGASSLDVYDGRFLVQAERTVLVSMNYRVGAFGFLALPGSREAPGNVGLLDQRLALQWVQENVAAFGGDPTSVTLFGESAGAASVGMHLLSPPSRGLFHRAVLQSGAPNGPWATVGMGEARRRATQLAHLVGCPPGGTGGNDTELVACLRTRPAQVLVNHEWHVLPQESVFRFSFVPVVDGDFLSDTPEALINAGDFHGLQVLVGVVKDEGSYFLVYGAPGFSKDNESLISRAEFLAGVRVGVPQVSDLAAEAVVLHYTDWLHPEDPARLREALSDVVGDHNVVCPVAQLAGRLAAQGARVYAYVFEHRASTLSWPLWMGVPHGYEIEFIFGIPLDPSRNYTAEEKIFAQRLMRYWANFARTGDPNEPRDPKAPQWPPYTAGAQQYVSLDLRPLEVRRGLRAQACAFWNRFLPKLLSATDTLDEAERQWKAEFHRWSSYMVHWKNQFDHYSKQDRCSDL

Alpha glucosidase = Alpha glucosidase (Homo sapiens, UniProt O43451+P10253+P14410+Q2M2H8); experiment: Inhibition of human alpha glucosidase; assay type: protein assay
HepG2 [2] = experiment: Anticancer activity against human HepG2 assessed as IL-6 induced luciferase activity; assay type: functional, cell-based
HepG2 [3] = experiment: Anticancer activity against human HepG2 assessed as IL-6 induced luciferase activity at 50 uM relative to control; assay type: functional
TF-1 = experiment: Anticancer activity against human TF-1 cells assessed as cell growth inhibition; assay type: functional, cell-based
[4] = Inhibition of human LTB4
[5] = Inhibition of human LTC4
Enterococcus faecalis = experiment: Antibacterial activity against Linezolid resistant Enterococcus faecalis assessed as bacterial growth inhibition incubated for 24 hrs; assay type: functional
Staphylococcus aureus [6] = experiment: Antibacterial activity against Staphylococcus aureus assessed as bacterial growth inhibition incubated for 24 hrs; assay type: functional
Enterococcus faecium = experiment: Antibacterial activity against Linezolid resistant Enterococcus faecium assessed as bacterial growth inhibition incubated for 24 hrs; assay type: functional
[7] = AUClast in Sprague-Dawley rat at 15 mg/kg, iv by HPLCLC-MS/MS analysis; assay type: ADME, organism-based; parameters: dose 15 mg/kg, route iv; conditions: in vivo
[8] = tested on: Mycobacterium tuberculosis; experiment: Antimycobacterial activity against Mycobacterium tuberculosis assessed as bacterial growth inhibition; assay type: functional
[9] = Metabolic stability in mouse microsomes assessed as intrinsic clearance; assay type: ADME, Microsome
[10] = Metabolic stability in human microsomes assessed as intrinsic clearance; assay type: ADME, Microsome
[11] = Metabolic stability in mouse microsomes assessed as half life; assay type: ADME, Microsome
[12] = Metabolic stability in human microsomes assessed as half life; assay type: ADME, Microsome
Staphylococcus aureus [13] = experiment: Antibacterial activity against methicillin resistant Staphylococcus aureus assessed as bacterial growth inhibition incubated for 18 hrs; assay type: functional
Staphylococcus aureus [14] = experiment: Antibacterial activity against methicillin sensitive Staphylococcus aureus assessed as bacterial growth inhibition incubated for 18 hrs; assay type: functional
HEK293 = experiment: Anticancer activity against HEK293 cells assessed as cell growth inhibition incubated for 48 hrs by MTT assay; assay type: functional, cell-based; conditions: Homo sapiens, HEK293, 48 h
L02 = experiment: Anticancer activity against human L02 cells assessed as cell growth inhibition incubated for 48 hrs by MTT assay; assay type: functional, cell-based; conditions: L02, 48 h
HeLa = experiment: Anticancer activity against human HeLa cells assessed as cell growth inhibition incubated for 72 hrs by MTT assay; assay type: functional, cell-based
MCF7 = experiment: Anticancer activity against human MCF7 cells assessed as cell growth inhibition incubated for 72 hrs by MTT assay; assay type: functional, cell-based; conditions: MCF7, 72 h
Mycobacterium kansasii = experiment: Antibacterial activity against Mycobacterium kansasii assessed as bacterial growth inhibition; assay type: functional
[15] = tested on: Mycolicibacterium fortuitum; experiment: Antibacterial activity against Mycobacterium fortuitum assessed as bacterial growth inhibition; assay type: functional
Mycobacteroides chelonae = experiment: Antibacterial activity against Mycobacteroides chelonae assessed as bacterial growth inhibition; assay type: functional

CC(=O)NC[C@H]1CN(c2ccc(N3C[C@H]4C[C@@H](O)C[C@H]4C3)c(F)c2)C(=O)O1
MIC90 [1]: 0.6 µM

CC1(C)O[C@@H]2[C@@H](O)[C@H]3NC(=O)O[C@H]3C[C@@H]2O1
IC50 (Carbonic anhydrase 1): 45.6 µM
IC50 (Carbonic anhydrase 2): 24.8 µM
IC50 (Acetylcholinesterase): 58.7 µM
IC50 (Alpha glucosidase): 30.5 µM

C=C(CCCCC)[C@@H](O)[C@H](C)C(=O)N1C(=O)OC[C@@H]1C(C)C
IC50 (HepG2 [2]): 5.9 µM
inhibition at 50 µM (HepG2 [3]): 90%
IC50 (TF-1): 7.5 µM

CCCCCCC(=O)N(O)C[C@H]1CN(c2ccc(N3CCOCC3)c(F)c2)C(=O)O1
IC50 [4]: 0.7 µM
IC50 [5]: 0.9 µM

O=C(CO)N1CCN(c2ccc(-c3ccc(N4C[C@H](Cn5ccnn5)OC4=O)cc3F)cn2)C=N1
MIC (Enterococcus faecalis): < 2 µg/mL
MIC (Staphylococcus aureus [6]): < 2 µg/mL
MIC (Enterococcus faecium): < 2 µg/mL
AUClast [7]: 85 mg/h/L

CCOc1nc(-c2ccc(N3C[C@H](CNC(C)=O)OC3=O)cc2F)cs1
MIC90 [8]: 2.6 µM (≈ 0.986 µg/mL)

CC(=O)NC[C@H]1CN(c2ccc(-c3ccc(-c4csc(N)n4)cc3)c(F)c2)C(=O)O1
MIC90 [8]: 0.9 µM (≈ 0.384 µg/mL)

O=C1CC2CN(c3ccc(N4C[C@H](Cn5ccnn5)OC4=O)cc3F)CC2C1 (some centres not stated)
MIC90 [1]: 1.2 µM

CC[C@H](NC(=O)[C@H]1CN(c2ccc(C(=N)N)cc2)C(=O)O1)c1cccc2ccccc12
CLH [9]: 2.4 mL/min/g
CLH [10]: 3.1 mL/min/g
half-life [11]: > 3 h
half-life [12]: > 3 h

CC(=O)NC[C@H]1CN(c2ccc(-n3cc(-c4ccccn4)cn3)c(F)c2)C(=O)O1
MIC (Staphylococcus aureus [13]): 0.5 µg/mL (≈ 1.26 µM)
MIC (Staphylococcus aureus [14]): 1 µg/mL (≈ 2.53 µM)
IC50 (HEK293): > 25 µM
IC50 (L02): 50 µM

CCN(CC)C(=O)/C=C1/OC(=O)N(Cc2ccccc2)C1(C)C
IC50 (HeLa): 17.7 µM
IC50 (MCF7): 31.1 µM

CC(C)C[C@@H](NC(=O)OC1c2ccccc2-c2ccccc21)C(=O)N[C@@H](Cc1ccccc1)[C@H]1CN(c2ccc(N3CCOCC3)c(F)c2)C(=O)O1
MIC90 [8]: 2.6 µM (≈ 1.84 µg/mL)

CC(=O)NC[C@H]1CN(c2ccc(N3CCN(c4ccc5nccn5n4)CC3)c(F)c2)C(=O)O1
MIC90 [8]: 1.1 µM (≈ 0.499 µg/mL)
MIC90 (Mycobacterium kansasii): 1 µM (≈ 0.453 µg/mL)
MIC90 [15]: 8 µM (≈ 3.63 µg/mL)
MIC90 (Mycobacteroides chelonae): 8 µM (≈ 3.63 µg/mL)
